Key:
Assay type in all cases: in vivo
Conditions in all cases: 250 g/ha, evaluated after 13 days
[1] = tested on: Amaranthus retoflexus (AMARE); experiment: Post-emergence Test, glasshouse, AMARE
Description: (§1) Seeds of a variety of test species are sown in standard soil in pots Amaranthus retoflexus (AMARE), Echinochloa crus-galli (ECHCG), Setaria faberi (SETFA)). After cultivation for one day (pre-emergence) or after 8 days cultivation (post-emergence) under controlled conditions in a glasshouse (at 24/16° C., day/night; 14 hours light; 65% humidity), the plants are sprayed with an aqueous spray solution derived from the formulation of the technical active ingredient in acetone/water (50:50) solution containing 0.5% Tween™ 20 (polyoxyethelyene sorbitan monolaurate, CAS RN 9005-64-5). Compounds are applied at 250 g/ha unless otherwise stated. The test plants are then grown in a glasshouse under controlled conditions in a glasshouse (at 24/16° C., day/night; 14 hours light; 65% humidity) and watered twice daily. After 13 days for pre- and post-emergence, the test is evaluated for the percentage damage caused to the plant. The biological activities are shown in the following table on a five-point scale (5=81-100%; 4=61-80%; 3=41-60%; 2=21-40%; 1=0-20%).

[2] = tested on: Echinochloa crus-galli (ECHCG); experiment: Post-emergence Test, glasshouse, ECHCG
Description: as §1

[3] = tested on: IPOHE; experiment: Post-emergence Test, glasshouse, IPOHE
Description: as §1

[4] = tested on: Setaria faberi (SETFA); experiment: Post-emergence Test, glasshouse, SETFA
Description: as §1

[5] = tested on: ABUTH; experiment: Pre-emergence Test, glasshouse, ABUTH
Description: as §1

[6] = tested on: ABUTH; experiment: Post-emergence Test, glasshouse, ABUTH
Description: as §1

[7] = tested on: Setaria faberi (SETFA); experiment: Pre-emergence Test, glasshouse, SETFA
Description: as §1

[8] = tested on: Echinochloa crus-galli (ECHCG); experiment: Pre-emergence Test, glasshouse, ECHCG
Description: as §1

[9] = tested on: IPOHE; experiment: Pre-emergence Test, glasshouse, IPOHE
Description: as §1

[10] = tested on: Amaranthus retoflexus (AMARE); experiment: Pre-emergence Test, glasshouse, AMARE
Description: as §1

| SMILES | percentage damage caused to the plant, five-point scale, AMARE [1] | percentage damage caused to the plant, five-point scale, ECHCG [2] | percentage damage caused to the plant, five-point scale, IPOHE [3] | percentage damage caused to the plant, five-point scale, SETFA [4] | percentage damage caused to the plant, five-point scale, ABUTH [5] | percentage damage caused to the plant, five-point scale, ABUTH [6] | percentage damage caused to the plant, five-point scale, SETFA [7] | percentage damage caused to the plant, five-point scale, ECHCG [8] | percentage damage caused to the plant, five-point scale, IPOHE [9] | percentage damage caused to the plant, five-point scale, AMARE [10] |
| --- | --- | --- | --- | --- | --- | --- | --- | --- | --- | --- |
| FC(F)(F)CCCn1ncc2cccc(Oc3ncc(Cl)cn3)c21 [Compound 1.001, 7-(5-chloropyrimidin-2-yl)oxy-1-(4,4,4-trifluorobutyl)indazole] | 2 (2=21-40%) | 3 (3=41-60%) | 1 (1=0-20%) | 4 (4=61-80%) | 4 (4=61-80%) | 4 (4=61-80%) | 5 (5=81-100%) | 5 (5=81-100%) | 1 (1=0-20%) | 4 (4=61-80%) |
| FC(F)(F)CCCn1ncc2c(Cl)cc(Cl)c(Oc3ncc(Cl)cn3)c21 [Compound 1.018] | 1 (1=0-20%) | 1 (1=0-20%) | 1 (1=0-20%) | 1 (1=0-20%) | 1 (1=0-20%) | 1 (1=0-20%) | 1 (1=0-20%) | 1 (1=0-20%) | 1 (1=0-20%) | – |
| FC(F)(F)CCCn1nnc2cccc(Oc3ncc(Cl)cn3)c21 [Compound 1.020, 7-(5-chloropyrimidin-2-yl)oxy-1-(4,4,4-trifluorobutyl) benzotriazole] | 2 (2=21-40%) | – | 2 (2=21-40%) | 5 (5=81-100%) | 4 (4=61-80%) | 3 (3=41-60%) | 5 (5=81-100%) | – | 2 (2=21-40%) | 5 (5=81-100%) |
| Cc1nn(CCCC(F)(F)F)c2c(Oc3ncc(Cl)cn3)cccc12 [Compound 1.021, 7-(5-chloropyrimidin-2-yl)oxy-3-methyl-1-(4,4,4-trifluorobutyl)indazole] | 1 (1=0-20%) | – | 3 (3=41-60%) | 4 (4=61-80%) | 3 (3=41-60%) | 4 (4=61-80%) | 5 (5=81-100%) | – | 2 (2=21-40%) | 5 (5=81-100%) |
| FC(F)(F)CCCn1nc(C(F)(F)F)c2cccc(Oc3ncc(Cl)cn3)c21 [Compound 1.022, 7-(5-chloropyrimidin-2-yl)oxy-1-(4,4,4-trifluorobutyl)-3-(trifluoromethyl)indazole] | 5 (5=81-100%) | – | 4 (4=61-80%) | 5 (5=81-100%) | 4 (4=61-80%) | 5 (5=81-100%) | 5 (5=81-100%) | 5 (5=81-100%) | 4 (4=61-80%) | 5 (5=81-100%) |
| COc1cc(Oc2cccc3nnn(CCCC(F)(F)F)c23)ncn1 [Compound 1.023] | 1 (1=0-20%) | – | 1 (1=0-20%) | 1 (1=0-20%) | 1 (1=0-20%) | 1 (1=0-20%) | 1 (1=0-20%) | – | 1 (1=0-20%) | 1 (1=0-20%) |
| N#Cc1cc(Oc2ncc(Cl)cn2)c2c(cnn2CCCC(F)(F)F)c1 [Compound 1.024] | 2 (2=21-40%) | – | 1 (1=0-20%) | 1 (1=0-20%) | 1 (1=0-20%) | 2 (2=21-40%) | 4 (4=61-80%) | – | 1 (1=0-20%) | 4 (4=61-80%) |
| FC(F)(F)CCCn1ncc2c(Br)ccc(Oc3ncc(Cl)cn3)c21 [Compound 1.025] | 2 (2=21-40%) | – | 1 (1=0-20%) | 2 (2=21-40%) | 1 (1=0-20%) | 2 (2=21-40%) | 2 (2=21-40%) | – | 1 (1=0-20%) | 1 (1=0-20%) |
| FC(F)(F)CCCn1nc(Cl)c2c(Cl)ccc(Oc3ncc(Cl)cn3)c21 [Compound 1.026] | 5 (5=81-100%) | – | 2 (2=21-40%) | 5 (5=81-100%) | 2 (2=21-40%) | 4 (4=61-80%) | 3 (3=41-60%) | 5 (5=81-100%) | 1 (1=0-20%) | 5 (5=81-100%) |
| FC(F)(F)CCCn1nc(Cl)c2c(Cl)cc(Cl)c(Oc3ncc(Cl)cn3)c21 [Compound 1.027] | 4 (4=61-80%) | 4 (4=61-80%) | 1 (1=0-20%) | 3 (3=41-60%) | 1 (1=0-20%) | 2 (2=21-40%) | 1 (1=0-20%) | – | 1 (1=0-20%) | 4 (4=61-80%) |
| FC(F)(F)CCCn1nc(Cl)c2c(Br)ccc(Oc3ncc(Cl)cn3)c21 [Compound 1.028] | 5 (5=81-100%) | – | 1 (1=0-20%) | 3 (3=41-60%) | 1 (1=0-20%) | 2 (2=21-40%) | 2 (2=21-40%) | – | 1 (1=0-20%) | 4 (4=61-80%) |
| N#Cc1ccc(Oc2ncc(Cl)cn2)c2c1c(Cl)nn2CCCC(F)(F)F [Compound 1.029] | 4 (4=61-80%) | – | 1 (1=0-20%) | 1 (1=0-20%) | 1 (1=0-20%) | 1 (1=0-20%) | 1 (1=0-20%) | – | 1 (1=0-20%) | 2 (2=21-40%) |
| N#Cc1cc(Oc2ncc(Cl)cn2)c2c(c1)c(Cl)nn2CCCC(F)(F)F [Compound 1.030] | 4 (4=61-80%) | 2 (2=21-40%) | 1 (1=0-20%) | 2 (2=21-40%) | 1 (1=0-20%) | 1 (1=0-20%) | 1 (1=0-20%) | – | 1 (1=0-20%) | 1 (1=0-20%) |
| Fc1cc(Cl)cnc1Oc1cccc2c(Cl)nn(CCCC(F)(F)F)c12 [Compound 1.032] | 5 (5=81-100%) | 3 (3=41-60%) | 3 (3=41-60%) | – | 1 (1=0-20%) | 3 (3=41-60%) | 4 (4=61-80%) | 3 (3=41-60%) | 1 (1=0-20%) | 3 (3=41-60%) |
